# Results reported in article PMC6204900 (The Journal of Biological Chemistry, 2018).
# Entries after “also recorded” stand apart in the source; their conditions may differ. Where two headings read alike, the source gives them in different places.
# Columns and labels:
# [1] = target: T1, IGF-1R (Homo sapiens, UniProt P08069); assay: Whole-cell receptor-binding assay, IGF-1R in transfected mouse embryonic fibroblasts
# T1 construct: expressed in transfected cells; host or cells: CHO-K1 (ATCC) stably transfected with pcDNA3-IGF-1R vector (gift of R. O'Connor); polyclonal CHO-R+ population
# Text: (§1) Human IM-9 lymphocytes (containing IR-A) and IGF-1R null mouse embryonic fibroblasts, stably transfected with either human IR-B or human IGF-1R, were employed for a whole-cell receptor-binding assay as described previously ([32], [33], [42]). For details, see supporting information.
# (§2) ULTIMATE 3000 RSLCnano (Dionex, Thermo Scientific) coupled to TripleTOFTM 5600 (SCIEX).
# The extent of iodination in a specific position in the three fractions containing iodinated Tyr residues […]
# was approximated by comparing the area of peaks corresponding to peptides containing TyrB16, […]
# (§3) TyrB26 and TyrB32 and their iodinated counterparts.
# Human IM-9 lymphocytes (containing IR-A) and IGF-1R null mouse embryonic fibroblasts, […]
# stably transfected with either human IR-B or human IGF-1R, were employed for whole cell receptor- […]
# binding assay as described previously (3-5). […]
# binding buffer (100 mM HEPES, 100 mM NaCl, 5 mM KCl, 1.3 mM MgSO4, 1 mM EDTA, 10 mM […]
# glucose, 15 mM NaOAc, 1 % w/v BSA, pH 7.6). After incubation 2 x 200 µL were centrifuged at […]
# (§4) 15,000 x g for 10 min in microfuge tubes containing 200 µL of pre-cooled HEPES binding buffer.
# Radioactive pellets were counted using the Gamma Counter Wizard 1470 (Perkin Elmer). Binding data […]
# (§5) were analyzed by Excel software using a method of non-linear regression and a one-site fitting program […]
# developed in the laboratory of Dr. Pierre De Meyts (A.V. Groth and R.M. Shymko, Hagedorn Research […]
# Institute, Denmark, a kind gift of Pierre De Meyts). […]
# set up to 0.3 nM. Receptor binding assays were performed under conditions excluding the depletion of […]
# (§6) calculated using the two-tailed t test. […]
# Following the incubation, the cells were washed twice with ice-cold binding buffer and solubilized with 0.1 M NaOH. Cell-associated radioactivity was counted using the Gamma Counter Wizard 1470 (Perkin Elmer). Binding data were analyzed by and the dissociation constant (Kd) was determined with GraphPad Prism 5 using a non-linear regression, a one-site fitting program and taking into account potential depletion of free ligand.
# Each binding curve was determined […]
# [2] = target: T2, IR-A (Homo sapiens, UniProt P06213); assay: Whole-cell receptor-binding assay, IR-A in IM-9 lymphocytes; conditions: as E1; measurement series ≈; read-out: IR-A Kd ± S.D. (n)
# T2 construct: host or cells: human IM-9 lymphocytes
# Text: as §1, §2
# The extent of iodination in a specific position in the three fractions containing iodinated Tyr residues
# was approximated by comparing the area of peaks corresponding to peptides containing TyrB16,
# as §3
# Human IM-9 lymphocytes (containing IR-A) and IGF-1R null mouse embryonic fibroblasts,
# stably transfected with either human IR-B or human IGF-1R, were employed for whole cell receptor-
# binding assay as described previously (3-5).
# binding buffer (100 mM HEPES, 100 mM NaCl, 5 mM KCl, 1.3 mM MgSO4, 1 mM EDTA, 10 mM
# glucose, 15 mM NaOAc, 1 % w/v BSA, pH 7.6). After incubation 2 x 200 µL were centrifuged at
# as §4
# Radioactive pellets were counted using the Gamma Counter Wizard 1470 (Perkin Elmer). Binding data
# as §5, §6
# [3] = target: T1, IGF-1R; assay: Association, dissociation and accelerated dissociation kinetics of 125I-labeled ligands on IGF-1R in CHO-R+ cells; type: binding; conditions: for (d1) dissociation rate at maximum acceleration ± S.D., IGF-1R / dissociation rate (measured) ± S.D., IGF-1R: 15°C; for (d1) dissociation rate at maximum acceleration ± S.D., IGF-1R: dissociation of 125I-labeled ligand in the presence of 170 nM cold ligand (17 μM for insulin), monoexponential decay fit; for dissociation rate (measured) ± S.D., IGF-1R: dissociation of 125I-labeled ligand without cold ligand; for Shape of dose-response curve for accelerated dissociation, IGF-1R: 125I-labeled ligand preincubated […] at 15°C, cold ligand 0.001 nM-10 µM for 30 min at 15°C
# Description: (§7) For details, see supporting information.
# (§8) HEPES binding buffer. The use of bovine serum albumin in the binding buffer (e.g. Sigma-Aldrich […]
# (§9) Following the incubation, the cells were washed twice with ice-cold binding buffer and solubilized with 0.1 M NaOH. Cell-associated radioactivity was counted using the Gamma Counter Wizard 1470 (Perkin […]
# (§10) Each binding curve was determined
# (§11) For dose-response curves for accelerated dissociation the cells (3 x 10^7/mL) in HEPES binding buffer were preincubated with the radio-labeled ligand (about 2500 Ci/mmol, 150,000 cpm/mL, about 0.03 nM) for 2.5 hours at 15°C. After the preincubation, the suspension was centrifuged at 1000 x g, 4°C for 5 min and the supernatant containing the unbound radioactivity was discarded. The pellet was resuspended in the initial volume of buffer.
# [4] = target: T1, IGF-1R; assay: Ligand-dose response IGF-1R autophosphorylation, In-Cell Western assay; type: cell-based; conditions: 0.1-100 nM ligand, 20 min, relative to 10 nM IGF-1
# Description: Ligand–dose response IGF-1R autophosphorylation levels for selected analogs were determined, using the In-Cell Western assay adapted for chemiluminescence as described ([34]). […] Experiments were repeated at least four times. Log(agonist) versus response curve fitting of data was carried out with GraphPad Prism 5.
# Mean ± S.D. (n ≥ 4) values were calculated.
# one-way analysis of variance (ANOVA) with Dunnett’s test comparing all analogs versus control i.e.
# Ligand-dose response IGF-1R autophosphorylation levels for selected analogs were determined, using In-Cell Western assay adapted for chemiluminiscence as described in (6). The IGF-1R cells were plated at 20,000 cells/well in white 96-well Brand plates cell grade (Brand GMBH, Germany) and incubated for 24 hours. Cells were afterwards starved for 4 hours in serum-free media and stimulated with dilutions of ligands (0-100 nM) for 20 min. After the incubation, the medium was discarded and the cells were fixed in 3.75 % v/v freshly prepared formaldehyde for 20 min. […]
# Then plates were thoroughly washed with TBS and incubated with peroxidase-labeled anti-rabbit secondary antibody (Sigma) for 1 hour at room temperature, and washed again. SuperSignal West Femto maximum sensitivity substrate was added to each well and chemiluminiscence was detected using the ChemiDoc MP Imaging System after 5 min. […]
# [5] = target: T1, IGF-1R; assay: Receptor phosphorylation assay (immunoblotting), IGF-1R-transfected mouse fibroblasts (R+39); type: cell-based; conditions: 10 nM ligand, 10 min, n ≥ 4
# Text: For details, see supporting information. […] Each experiment was repeated four times.
# [6] = target: T2, IR-A; assay: Association, dissociation and accelerated dissociation kinetics of 125I-labeled ligands on IR-A in IM-9 cells; type: binding
# Description: as §7, §8, §9, §10, §11
# T2 sequence (P06213 28-1370 isoform P06213-2 limits assumed): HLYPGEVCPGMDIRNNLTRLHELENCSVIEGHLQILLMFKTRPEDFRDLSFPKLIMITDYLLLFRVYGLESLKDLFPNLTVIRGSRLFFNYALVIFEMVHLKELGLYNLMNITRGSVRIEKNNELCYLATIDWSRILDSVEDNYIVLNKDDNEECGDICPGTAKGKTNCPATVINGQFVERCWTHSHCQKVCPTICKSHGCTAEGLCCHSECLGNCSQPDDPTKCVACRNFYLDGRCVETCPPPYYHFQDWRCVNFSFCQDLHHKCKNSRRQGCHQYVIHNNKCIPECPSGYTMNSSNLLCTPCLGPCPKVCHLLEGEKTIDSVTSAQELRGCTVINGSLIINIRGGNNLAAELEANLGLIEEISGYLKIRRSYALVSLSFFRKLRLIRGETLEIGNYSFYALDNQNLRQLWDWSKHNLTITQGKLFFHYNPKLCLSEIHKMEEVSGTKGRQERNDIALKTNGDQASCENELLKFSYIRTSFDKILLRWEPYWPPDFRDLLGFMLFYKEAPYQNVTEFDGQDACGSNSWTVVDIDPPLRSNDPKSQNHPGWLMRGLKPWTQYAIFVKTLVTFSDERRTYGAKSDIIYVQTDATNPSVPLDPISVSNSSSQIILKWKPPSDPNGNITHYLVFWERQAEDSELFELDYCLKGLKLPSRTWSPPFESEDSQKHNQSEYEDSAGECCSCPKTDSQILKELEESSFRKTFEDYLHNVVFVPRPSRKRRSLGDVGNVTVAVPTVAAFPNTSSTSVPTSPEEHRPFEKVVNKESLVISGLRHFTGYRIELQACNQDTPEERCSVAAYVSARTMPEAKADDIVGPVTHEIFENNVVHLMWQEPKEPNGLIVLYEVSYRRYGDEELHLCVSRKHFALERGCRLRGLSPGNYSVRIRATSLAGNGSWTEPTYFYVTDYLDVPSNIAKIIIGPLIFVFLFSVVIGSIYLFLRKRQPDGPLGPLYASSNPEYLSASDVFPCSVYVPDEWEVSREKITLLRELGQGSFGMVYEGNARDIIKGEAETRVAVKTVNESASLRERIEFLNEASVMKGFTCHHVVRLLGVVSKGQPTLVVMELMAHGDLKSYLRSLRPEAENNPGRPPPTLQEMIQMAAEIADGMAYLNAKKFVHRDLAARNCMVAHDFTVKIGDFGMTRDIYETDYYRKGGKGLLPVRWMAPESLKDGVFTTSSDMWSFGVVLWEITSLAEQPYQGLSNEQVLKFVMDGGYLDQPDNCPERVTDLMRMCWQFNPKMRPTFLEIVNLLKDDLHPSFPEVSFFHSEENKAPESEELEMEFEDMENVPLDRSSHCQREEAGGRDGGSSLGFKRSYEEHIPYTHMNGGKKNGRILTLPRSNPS
# T2 sequence (P06213 763-1382 partner limits assumed): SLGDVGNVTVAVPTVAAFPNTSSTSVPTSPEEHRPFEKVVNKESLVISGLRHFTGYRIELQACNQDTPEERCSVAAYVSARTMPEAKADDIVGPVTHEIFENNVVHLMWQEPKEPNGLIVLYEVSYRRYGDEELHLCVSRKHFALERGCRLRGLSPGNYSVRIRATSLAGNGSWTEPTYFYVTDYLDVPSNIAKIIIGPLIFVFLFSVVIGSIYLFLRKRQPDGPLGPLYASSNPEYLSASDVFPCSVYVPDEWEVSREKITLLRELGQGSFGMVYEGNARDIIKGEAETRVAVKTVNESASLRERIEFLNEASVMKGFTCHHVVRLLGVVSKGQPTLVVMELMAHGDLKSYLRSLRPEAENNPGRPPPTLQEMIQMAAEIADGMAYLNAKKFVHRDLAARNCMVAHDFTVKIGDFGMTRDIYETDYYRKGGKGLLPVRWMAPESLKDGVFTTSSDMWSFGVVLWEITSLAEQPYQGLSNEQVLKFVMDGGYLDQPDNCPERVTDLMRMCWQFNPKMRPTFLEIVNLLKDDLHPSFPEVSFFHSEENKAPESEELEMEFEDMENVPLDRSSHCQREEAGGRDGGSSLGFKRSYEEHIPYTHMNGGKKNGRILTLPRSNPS
Substance,"Kd ([1]; IGF-1R null mouse embryonic fibroblasts transfected with human IGF-1R, competition with mono-125I-IGF-1 (about 0.01 nM), 16 h at 5°C, HEPES binding buffer, mean ± S.D. of n≥3 binding curves, measurement series #) [nM]",Kd [2] [nM],"Kd ([1]; as E12, measurement series $, read-out: IGF-1R Kd ± S.D. (n)) [nM]",Increase of binding to IGF-1R compared with insulin ([1]; from Table 1 binding affinities),"(d1) dissociation rate at maximum acceleration ± S.D., IGF-1R [3] [min⁻¹]","dissociation rate (measured) ± S.D., IGF-1R [3] [min⁻¹]","Shape of dose-response curve for accelerated dissociation, IGF-1R [3]",Dose-response of IGF-1R stimulation [4],Ability to stimulate IGF-1R phosphorylation [5],"(d1) dissociation rate at maximum acceleration ± S.D., IR-A ([6]; 15°C, dissociation of 125I-labeled ligand in the presence of 170 nM cold ligand, monoexponential decay fit) [min⁻¹]","dissociation rate (measured) ± S.D., IR-A ([6]; 15°C, dissociation of 125I-labeled ligand without cold ligand) [min⁻¹]","Shape of dose-response curve for accelerated dissociation, IR-A ([6]; 125I-labeled ligand preincubated […] at 15°C, cold ligand 0.001 nM-10 µM for 30 min at 15°C)"
"IGF-2: insulin-like growth factor 2, protein hormone closely related to insulin",2.32 ± 1.24,2.92 ± 0.24,,,,,,,,,,
"[D-His^B24, Gly^B31, Tyr^B32]-insulin",,,0.89 ± 0.2,about 150 fold,0.0203 ± 0.0038,0.0064 ± 0.0035,sigmoid,equipotent to IGF-2,increased stimulation of the receptor; also recorded: to an extent approximating IGF-2,0.0432 ± 0.0032,0.0017 ± 0.0002,bell-shaped
insulin [reference compound],,,,,0.0069 ± 0.0004,0.0026 ± 0.0010,sigmoid,,,,,
